Laboratory results as given in patent US4212797A, “Synthetic pentapeptide having opiate agonist activity” (Beckman Instruments, Inc., priority 1976, dated 1980).

Columns and labels:
opiate receptor sites = details: Hughes et al, Nature 258, 577-579 (1975); cited from earlier work
[1] = tested on: opiate receptor (stereospecific naloxone binding); assay: Inhibition of stereospecific naloxone binding (Pert and Snyder technique); details: for ID50, concentration required to inhibit 50% of stereospecific naloxone binding: sodium 100 mM
Experimental: B., and Snyder, S., Proceedings of the National Academy of Sciences, Vol. 70, pp. 2243-2247 (1973). The potency is measured as ID50, defined as the concentration required to inhibit 50% of stereospecific naloxone binding. The concentration of sodium was 100 mM. The effectiveness is inversely related to the ID50 value.

Structure (SMILES): CSCC[C@H](NC(=O)[C@H](Cc1ccccc1)NC(=O)CNC(=O)CNC(=O)[C@@H](N)Cc1ccc(O)cc1)C(=O)O [Enkephalin sequence one, H-Tyr-Gly-Gly-Phe-Met-OH]
- Opiate agonist potency, comparison in words (opiate receptor sites): more potent than sequence two
- ID50, concentration required to inhibit 50% of stereospecific naloxone binding [1]: 0.4

Structure (SMILES): CC(C)C[C@H](NC(=O)[C@H](Cc1ccccc1)NC(=O)CNC(=O)CNC(=O)[C@@H](N)Cc1ccc(O)cc1)C(=O)O [Enkephalin sequence two, H-Tyr-Gly-Gly-Phe-Leu-OH]
- ID50, concentration required to inhibit 50% of stereospecific naloxone binding [1]: 1.4

Structure (SMILES): CSCC[C@H](NC(=O)[C@H](Cc1ccccc1)NC(=O)CNC(=O)CNC(=O)[C@@H](N)Cc1ccc(O)cc1)C(N)=O [Subject Pentapeptide, H-Tyr-Gly-Gly-Phe-Met-NH2]
- Potency relative to the more potent sequence of enkephalin ([1]; from ID50 values of Table 1): twice as potent as the more potent sequence of enkephalin
- ID50, concentration required to inhibit 50% of stereospecific naloxone binding [1]: 0.2
